The results in this text go back to paper PMC10896388, “Hybrid Allosteric Modulators of M1 Muscarinic Receptors Enhance Acetylcholine Efficacy and Decrease Locomotor Activity and Turning Behaviors in Zebrafish” (Research Square, 2024).

“Also recorded” adds a separate entry of the source. Where two headings read alike, the source gives them in different places.

Data set [1] relates to wild-type (AB) zebrafish (Danio rerio). In words: Maximum tolerated concentration (MTC) determination in zebrafish larvae. The data set is classed as in vivo. The settings on record: for MTC (maximum tolerated concentration): 5 dpf zebrafish larvae, after 24-hr exposure. As for the experimental part: Determination of maximum tolerated concentration (adapted from Berghmans)[52] was completed by placing 5 days post fertilization (dpf) wild-type zebrafish larvae in a 24 well plate at 6 fish per well, and one compound concentration per well. […] Death was determined by the absence of heartbeat. Additional endpoints were used to assess toxicity at non-lethal concentrations such as startle capacity (poke stimulus), abnormalities in swimming behavior (loss of dorsoventral balance), and gross morphological deformities (bent body). […] The MTC determination was used to select three doses of each compound (low, medium, high dose) to be used in behavioral assays.

In data set [2] the target is T1, human M1 muscarinic receptors (Homo sapiens, UniProt P11229).
T1 sequence (P11229 1-460): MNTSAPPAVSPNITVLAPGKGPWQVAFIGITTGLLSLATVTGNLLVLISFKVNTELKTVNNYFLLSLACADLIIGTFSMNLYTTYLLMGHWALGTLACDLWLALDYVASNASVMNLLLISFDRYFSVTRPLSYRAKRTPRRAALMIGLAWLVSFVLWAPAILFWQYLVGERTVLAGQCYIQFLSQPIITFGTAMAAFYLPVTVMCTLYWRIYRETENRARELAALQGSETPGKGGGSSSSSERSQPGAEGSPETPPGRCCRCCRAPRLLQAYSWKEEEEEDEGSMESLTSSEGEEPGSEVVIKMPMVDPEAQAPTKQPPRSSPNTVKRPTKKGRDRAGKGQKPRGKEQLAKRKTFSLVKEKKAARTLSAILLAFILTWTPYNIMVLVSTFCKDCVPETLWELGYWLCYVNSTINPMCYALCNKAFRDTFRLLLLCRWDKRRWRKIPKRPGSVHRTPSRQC
In words: [3H]-arachidonic acid release in CHO cells expressing M1 receptors, with and without ACh. It counts as cell-based. Also on record: expressed in transfected cells; host or cells: CHO cells (stably transfected CHO-hM1, from Mark Brann's laboratory, NIH). The settings on record: for No ACh: agonist effect of the allosteric ligand by itself, fraction of the maximal response that could be elicited by ACh: at least 4 determinations. As for the experimental part: CHO cells expressing human M1 muscarinic receptors were cultured at 37°C in a 5% CO2 atmosphere in F12 medium supplemented with 5% fetal bovine serum, 100 units/mL penicillin, and 100µg/mL streptomycin. These cells were obtained from Mark Brann’s laboratory when they were at NIH and have been in use by us and others for many years.[49]
Measurement of [^3H]AA release was performed as described in Stahl and Ellis.[24] Stably transfected CHO-hM1 cells were seeded on 24-well plates (Greiner Bio-One GmbH, Frickenhausen, Germany) at a density of 5.0 × 10^4 cells/well in 0.5 ml of F-12 medium. Cells were incubated until they attached (approximately 3 h), followed by the addition of [^3H]AA to a final concentration of 0.05 µCi of [^3H]AA per well. The cells were then grown for 16 to 20 h before the assay was performed. [^3H]AA release was measured in Eagle’s basal medium with 20 mM HEPES and 2 mg/ml fatty acid-free bovine serum albumin (EM-BSA). Cells were rinsed twice with EM-BSA, followed by the addition of EM-BSA media containing experimental agents and incubated for 1 h at 37°C. The assay was terminated by aspiration of the media, and the amount of [^3H]AA released was determined by liquid scintillation counting (Beckman-Coulter LS6500). […]
Tabulated [^3H]AA release data are represented as a fraction of maximal release elicited by ACh or as the fraction of release elicited by the relevant concentration of ACh alone, as indicated. Dose-response curves were normalized to the maximal response of ACh without allosteric ligand. Where indicated, response curves were analyzed using the empirical four-parameter equation: […] where X is the concentration of the ligand used, Y is the amount of response, C50 is the concentration of the ligand that produces 50% of the maximal effect, Top and Bottom are the top and bottom plateaus of the curve, and n is related to the Hill slope for the curve. Where indicated, families of response curves were analyzed according to an allosteric operational model:[50],[51]

Data set [3] concerns wild-type (AB) zebrafish (Danio rerio). In words: animal or person. It counts as in vivo. The following applies: for Therap. Index: zebrafish, apparently MTC / MEC. On the procedure: The movement of larval zebrafish was monitored with the Noldus behavior recording system (Noldus Information Technology, Leesburg VA) and quantified using EthoVision® XT 15 software (Noldus Information Technology, Leesburg VA). Five-dpf zebrafish larvae were exposed to a range of nonlethal concentrations of compounds in a 24-well plate with appropriate controls. The plate was immediately placed in the incubator for a 30-minute exposure period. After 30 minutes, the plate was transferred to the Noldus system and swimming behavior was recorded in 100% light for 30 minutes to measure spontaneous swimming behavior. The light was switched off for 10 minutes (dark period) and then switched on for 10 minutes (light period), which was then repeated for two additional cycles. In total, the larvae were exposed to three cycles of alternating 10-minute dark and light periods (100% darkness-to-100% light). Each drug challenge was conducted on three separate plates with n = 6 larvae/dose/plate.
Absolute turn angle (TA) and angular velocity provided measures of the extent of turning behavior, while the intra-individual variance of turn angle quantified how consistently (low variance) or inconsistently (high variance) fish turned. A lowered intra-individual variance of turning reflected repeatedly performing the same turning behavior, a stereotypy.[53]
All data for exposure and the behavioral end points were analyzed by one-way ANOVA (factor: drug concentration) followed by a Dunnett’s multiple comparisons test for post hoc significance between drug concentration and control group. Statistically significant differences are noted as follows; *, p < 0.05; **, p < 0.01; ***, p < 0.001.

[4] abbreviates: modulator 10 µM, CHO-hM1, mean ± s.e.m.
Where [5] appears, read: [3H]AA release, CHO-hM1, modulators at 10 µM (amiodarone 30 µM).

On to `CCCCc1oc2ccccc2c1C(=O)c1cc(I)c(OCCN(CC)CC)c(I)c1` [Amiodarone, reference compound], for which, in data set [1], the “MTC (maximum tolerated concentration)” value was 10 µM. Moreover, in data set [1] (zebrafish larvae), the “concentration that produced death” value is given as 100 µM.
`COc1ccc(Cn2cc(C(=O)O)c(=O)c3ccccc32)cc1` [BQCA, reference compound]: the “modulation of ACh response (in words)” value in data set [2] is “enhanced potency without appreciable effect on maximal response”. For the same compound, the “No ACh: agonist effect of the allosteric ligand by itself, fraction of the maximal response that could be elicited by ACh” value in data set [2] (setting [4]) was 0.02 ± 0.00. Besides, the “effect on locomotor activity and turning behaviors (in words)” value in data set [3] (AB zebrafish, 30-minute spontaneous swimming period) was “decreased overall locomotor activity”.
In the case of `CCCCc1oc2ccccc2c1C(=O)c1cc(I)c(OCCNCC)c(I)c1.Cl` [Compound 1, (2-butylbenzofuran-3-yl)(4-(2-(ethylamino)ethoxy)-3,5-diiodophenyl)methanone hydrochloride], the “MTC (maximum tolerated concentration)” value in data set [1] was 3 µM. Moreover, the “modulation of ACh response (in words)” value in data set [2] (setting [5]) is reported as “suppressed the maximal ACh response”. In data set [3], the “Therap. Index” value was 1.
As for `CCCCc1oc2ccccc2c1C(=O)c1cc(I)c(OCC[N+](CC)(CC)CC)c(I)c1` [Compound 2, N-ethyl amiodarone, reference compound], the “MTC (maximum tolerated concentration)” value in data set [1] is 1 µM. The “modulation of ACh response (in words)” value in data set [2] (setting [5]) was “NAM of mAChR potency and efficacy”.
`CCCCc1oc2ccccc2c1C(=O)c1cc(I)c(O)c(I)c1` [Compound 3, reference compound]: the “MTC (maximum tolerated concentration)” value in data set [1] came out at 3 µM. Further, in data set [2] (setting [5]), the “modulation of ACh response (in words)” value is reported as “suppressed the maximal ACh response”.
On the same counts, the results for `CCCCc1oc2ccccc2c1C(=O)c1ccc(O)cc1` [Compound 4, reference compound] are 0.3 µM and “suppressed the maximal ACh response”.
Consider `CCCCc1oc2ccccc2c1C(=O)c1cc(I)c(OCCN(CC)C(C)=O)c(I)c1` [Compound 5a, N-(2-(4-(2-butylbenzofuran-3-carbonyl)-2,6-diiodophenoxy)ethyl)-N-ethylacetamide], for which the “MTC (maximum tolerated concentration)” value in data set [1] came to 10 µM. For the same compound, the “intrinsic agonist activity (in words)” value in data set [2] ([3H]AA release in the absence of ACh, 10 µM) is reported as “significant intrinsic agonist activity”. Further, the “increase in mAChR activity compared to treatment with ACh alone” value in data set [2] ([3H]AA release, CHO-hM1, predominantly at higher doses of ACh (Table 2, not available)) is 70%.
Consider `CCCCc1oc2ccccc2c1C(=O)c1ccc(OC)cc1` [Compound 6a, (2-butylbenzofuran-3-yl)(4-methoxyphenyl)methanone], for which the “MTC (maximum tolerated concentration)” value in data set [1] was 3 µM.
Consider `CCCCc1oc2ccccc2c1C(=O)c1cc(I)c(OC)c(I)c1` [Compound 6b, (2-butylbenzofuran-3-yl)(3,5-diiodo-4-methoxyphenyl)methanone], for which, in data set [1], the “MTC (maximum tolerated concentration)” value amounted to 30 µM. In data set [2] (setting [5]), the “modulation of ACh response (in words)” value is “increased ACh activity”.
Take `CCCCc1oc2ccccc2c1C(=O)c1ccc(OCCN(CC)CC)cc1` [Compound 6c, (2-butylbenzofuran-3-yl)(4-(2-(diethylamino)ethoxy)phenyl)methanone]: in data set [1], the “MTC (maximum tolerated concentration)” value stood at 3 µM. Further, in data set [2] (setting [5]), the “modulation of ACh response (in words)” value is “decreased ACh activity”. Besides, the “Therap. Index” value in data set [3] is given as 30.
`COc1ccc(CN2C(=O)C(=O)c3ccccc32)cc1I` [Compound 8b, 1-(3-iodo-4-methoxybenzyl)indoline-2,3-dione]: the “MTC (maximum tolerated concentration)” value in data set [1] was 10 µM. The “Therap. Index” value in data set [3] is recorded as 10.
On the same counts, the results for `COc1ccc(CN2C(=O)C(=O)c3ccccc32)cc1Br` [Compound 8d, 1-(3-bromo-4-methoxybenzyl)indoline-2,3-dione] are 100 µM and 100.
For the compound `COc1c(Cl)cc(CN2C(=O)C(=O)c3ccccc32)cc1Cl` [Compound 8e, 1-(3,5-dichloro-4-methoxybenzyl)indoline-2,3-dione], the “MTC (maximum tolerated concentration)” value in data set [1] worked out at 100 µM. Further, the “Therap. Index” value in data set [3] came to 100.
On the same counts, the results for `COc1ccc(CN2C(=O)C(=O)c3ccccc32)cc1Cl` [Compound 8f, 1-(3-chloro-4-methoxybenzyl)indoline-2,3-dione] are 10 µM and 3.3.
The matching figures for `COc1c(F)cc(CN2C(=O)C(=O)c3ccccc32)cc1F` [Compound 8g, 1-(3,5-difluoro-4-methoxybenzyl)indoline-2,3-dione]: 30 µM and 30.
As for `COc1ccc(CN2C(=O)C(=O)c3ccccc32)cc1F` [Compound 8h, 1-(3-fluoro-4-methoxybenzyl)indoline-2,3-dione], the “MTC (maximum tolerated concentration)” value in data set [1] is listed as 30 µM. Besides, the “Therap. Index” value in data set [3] was determined as 10.
As to `O=C1C(=O)N(Cc2cc(F)c(F)c(F)c2)c2ccccc21` [Compound 8i, 1-(3,4,5-trifluorobenzyl)indoline-2,3-dione], the “MTC (maximum tolerated concentration)” value in data set [1] is on record as 10 µM. Further, the “Therap. Index” value in data set [3] was 10.
Regarding `COc1cc(CN2C(=O)C(=O)c3ccccc32)cc(OC)c1OC` [Compound 8k, 1-(3,4,5-trimethoxybenzyl)indoline-2,3-dione], the “MTC (maximum tolerated concentration)” value in data set [1] is on record as 30 µM. Besides, the “Therap. Index” value in data set [3] is 30.
`CCN(CC)CCOc1c(Br)cc(CN2C(=O)C(=O)c3ccccc32)cc1Br.Cl` [Compound 8l, 1-(3,5-dibromo-4-(2-(diethylamino)ethoxy)benzyl)indoline-2,3-dione hydrochloride]: in data set [1], the “MTC (maximum tolerated concentration)” value worked out at 10 µM. Besides, the “modulation of ACh response (in words)” value in data set [2] (setting [5]) is “only decreased ACh activity; also recorded: decreased ACh potency with little impact on ACh efficacy”. Further, the “Therap. Index” value in data set [3] is reported as 1.
Turning to `O=C1C(=O)N(Cc2ccc(O)cc2)c2ccccc21` [Compound 10, 1-(4-hydroxybenzyl)indoline-2,3-dione], in data set [1], the “MTC (maximum tolerated concentration)” value is on record as 10 µM. Also, the “Therap. Index” value in data set [3] turned out to be 3.3.
As to `O=C1C(=O)N(Cc2ccc(Br)cc2)c2ccccc21` [VU0119498, reference compound], the “0.1 µM ACh: response with modulator present divided by response to ACh alone” value in data set [2] (modulator 10 µM, 0.1 µM ACh, CHO-hM1, mean ± s.e.m.) stood at 1.28 ± 0.12. In addition, in data set [2] (modulator 10 µM, 100 µM ACh, CHO-hM1, mean ± s.e.m.), the “100 µM ACh: response with modulator present divided by response to ACh alone” value is reported as 1.03 ± 0.05. Besides, the “No ACh: agonist effect of the allosteric ligand by itself, fraction of the maximal response that could be elicited by ACh” value in data set [2] (setting [4]) came to 0.06 ± 0.01.
